Test results as given in ChEMBL document CHEMBL5321279 (J Med Chem, 2023).
Calls of active or inactive are those of the source. The rule behind the calls is not given here.

Columns and labels:
[1] = (§1) Cytotoxicity against human HepG2 cells assessed as reduction in cell growth measured after 5 days by CellTiter-Glo assay; assay type: toxicity, cell-based; conditions: HepG2 cells, time 5 day
[2] = AUC(0 to 24 hrs) in African green monkey infected with SARS-CoV-2 assessed as prodrug conversion by measuring (2R,3R,4S,5R)-2-(4-aminopyrrolo[2,1-f][1,2,4]triazin-7-yl)-3,4-dihydroxy-5-(hydroxymethyl)tetrahydrofuran-2-carbonitrile at 10 mg/kg, iv qd administered for day 1 followed by 5 mg/kg administration measured after 6 days by LC-MS/MS analysis; assay type: ADME, organism-based, Severe acute respiratory syndrome coronavirus 2; parameters: dose 10 mg/kg, time 6 day, route iv; conditions: in vivo
[3] = Prodrug conversion in cynomolgus monkey assessed as Nucleotide triphosphate metabolite formation in lung at 20 mg/kg, iv measured upto 24 hrs by LC-MS/MS analysis; assay type: ADME, organism-based, Macaca fascicularis; conditions: in vivo
[4] = Prodrug conversion in African green monkey assessed as Nucleotide triphosphate metabolite formation in lung at 20 mg/kg, iv measured upto 24 hrs by LC-MS/MS analysis; assay type: ADME, organism-based; conditions: chlorocebus aethiops, in vivo
[5] = AUC(0 to 24 hrs) in African green monkey at 20 mg/kg, iv measured upto 24 hrs by LC-MS/MS analysis; assay type: ADME, organism-based; parameters: dose 20 mg/kg, time < 24 hrs, route iv; conditions: chlorocebus sabaeus, in vivo
HepG2 = test: as §1; assay type: toxicity, cell-based; conditions: hepg2, 120 h, time 5 day
[6] = Oral bioavailability in cynomolgus monkey assessed as prodrug conversion by measuring (2R,3R,4S,5R)-2-(4-aminopyrrolo[2,1-f][1,2,4]triazin-7-yl)-3,4-dihydroxy-5-(hydroxymethyl)tetrahydrofuran-2-carbonitrile at 11.7 mg/kg administered in solid form measured upto 24 hrs by LC-MS/MS analysis; assay type: ADME, organism-based, Macaca fascicularis; conditions: in vivo
SARS-CoV-2 [7] = test: Antiviral activity against SARS-CoV-2 infected in African green monkey assessed as reduction in viral load in BALF at 60 to 120 mg/kg, po qd administered for 6 days starting from 8 hrs post infection by PFA assay; assay type: functional, organism-based; conditions: Severe acute respiratory syndrome coronavirus 2, dose lower 60.0 mg/kg, dose upper […], time 6.0 day
[8] = Cmax in African green monkey assessed as prodrug conversion by measuring (2R,3R,4S,5R)-2-(4-aminopyrrolo[2,1-f][1,2,4]triazin-7-yl)-3,4-dihydroxy-5-(hydroxymethyl)tetrahydrofuran-2-carbonitrile at 86.5 mg/kg, po measured upto 24 hrs by LC-MS/MS analysis; assay type: ADME, organism-based; parameters: dose 86.5 mg/kg, time < 24 hrs, route po; conditions: chlorocebus sabaeus, in vivo
CES2 (cocaine esterase) = molecular target: T1, CES2 (cocaine esterase) (Homo sapiens, UniProt O00748); test: Stability of compound assessed as human recombinant CES2-mediated compound hydrolysis by measuring half life at pH 7.4 using oseltamivir as substrate measured upto 120 mins by LC-MS/MS analysis; assay type: ADME; conditions: recombinant CES2, pH 7.4, probe oseltamivir
T1 sequence (O00748 whole entry): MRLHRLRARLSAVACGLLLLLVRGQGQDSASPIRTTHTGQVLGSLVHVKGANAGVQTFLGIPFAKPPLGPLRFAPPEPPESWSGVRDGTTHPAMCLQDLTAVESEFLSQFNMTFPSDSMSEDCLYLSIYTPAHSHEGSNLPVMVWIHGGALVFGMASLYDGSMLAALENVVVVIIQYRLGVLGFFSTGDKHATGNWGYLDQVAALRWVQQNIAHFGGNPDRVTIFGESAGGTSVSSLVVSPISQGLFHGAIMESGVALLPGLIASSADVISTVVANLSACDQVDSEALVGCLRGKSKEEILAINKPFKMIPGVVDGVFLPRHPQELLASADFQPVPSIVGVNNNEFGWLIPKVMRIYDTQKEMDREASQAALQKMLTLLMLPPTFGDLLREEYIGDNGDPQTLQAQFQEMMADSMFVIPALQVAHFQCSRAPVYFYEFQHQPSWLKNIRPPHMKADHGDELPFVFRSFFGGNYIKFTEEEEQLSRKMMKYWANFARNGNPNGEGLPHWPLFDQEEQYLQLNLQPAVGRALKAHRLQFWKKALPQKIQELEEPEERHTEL

[9] = Stability of compound in cynomolgus monkey plasma assessed as half life measured upto 4 hrs by LC-MS/MS analysis; assay type: ADME, cell-free, Macaca fascicularis
[10] = Stability of compound in rat gastrointestinal S9 fraction assessed as half life at pH 7.4 measured upto 120 mins by LC-MS/MS analysis; assay type: ADME, subcellular, Gastrointestinal tract
[11] = AUC(0 to 24 hrs) in cynomolgus monkey at 11.7 mg/kg, po measured upto 24 hrs by LC-MS/MS analysis; assay type: ADME, organism-based, Macaca fascicularis; parameters: dose 11.7 mg/kg, time < 24 hrs, route po; conditions: in vivo
[12] = Stability of compound in human plasma assessed as half life measured upto 4 hrs by LC-MS/MS analysis; assay type: ADME, cell-free
[13] = Oral bioavailability in rat assessed as prodrug conversion by measuring (2R,3R,4S,5R)-2-(4-aminopyrrolo[2,1-f][1,2,4]triazin-7-yl)-3,4-dihydroxy-5-(hydroxymethyl)tetrahydrofuran-2-carbonitrile at 6 mg/kg administered in solid form measured upto 24 hrs by LC-MS/MS analysis; assay type: ADME, organism-based; conditions: in vivo
SARS-CoV-2 [14] = test: Antiviral activity against SARS-CoV-2 infected in African green monkey assessed as reduction in viral titer in nasal swabs at 60 to 120 mg/kg, po qd administered for 4 days starting from 8 hrs post infection by PFA assay; assay type: functional, organism-based; conditions: Severe acute respiratory syndrome coronavirus 2, dose lower 60.0 mg/kg, dose upper […], time 4.0 day
[15] = Half life in African green monkey assessed as prodrug conversion by measuring (2R,3R,4S,5R)-2-(4-aminopyrrolo[2,1-f][1,2,4]triazin-7-yl)-3,4-dihydroxy-5-(hydroxymethyl)tetrahydrofuran-2-carbonitrile at 60 mg/kg, po measured upto 24 hrs by LC-MS/MS analysis; assay type: ADME, organism-based; conditions: chlorocebus sabaeus, in vivo
[16] = Half life in African green monkey assessed as prodrug conversion by measuring (2R,3R,4S,5R)-2-(4-aminopyrrolo[2,1-f][1,2,4]triazin-7-yl)-3,4-dihydroxy-5-(hydroxymethyl)tetrahydrofuran-2-carbonitrile at 86.5 mg/kg, po measured upto 24 hrs by LC-MS/MS analysis; assay type: ADME, organism-based; conditions: chlorocebus sabaeus, in vivo
[17] = AUC(0 to 24 hrs) in cynomolgus monkey assessed as prodrug conversion by measuring (2R,3R,4S,5R)-2-(4-aminopyrrolo[2,1-f][1,2,4]triazin-7-yl)-3,4-dihydroxy-5-(hydroxymethyl)tetrahydrofuran-2-carbonitrile at 11.7 mg/kg, po measured upto 24 hrs by LC-MS/MS analysis; assay type: ADME, organism-based, Macaca fascicularis; parameters: dose 11.7 mg/kg, time < 24 hrs, route po; conditions: in vivo
[18] = Stability of compound in human gastrointestinal S9 fraction assessed as half life at pH 7.4 measured upto 120 mins by LC-MS/MS analysis; assay type: ADME, subcellular, Gastrointestinal tract
[19] = AUC(0 to 24 hrs) in dog at […], po measured upto 24 hrs by LC-MS/MS analysis; assay type: ADME, organism-based, Canis lupus familiaris; conditions: in vivo

CCC(CC)COC(=O)[C@H](C)N[P@](=O)(OC[C@H]1O[C@@](C#N)(c2ccc3c(N)ncnn23)[C@H](O)[C@@H]1O)Oc1ccccc1
CC50 at 120 h [1]: 11.1 µM | AUC [2]: 7.9 µM·h

N#C[C@@]1(c2ccc3c(N)ncnn23)O[C@H](CO)[C@@H](O)[C@H]1O [GS-441524]
Drug metabolism [3]: 0.41 nmol/g | Drug metabolism [4]: 0.23 nmol/g | AUC [5]: 147 µM·h

CC(C)C(=O)OC[C@H]1O[C@@](C#N)(c2ccc3c(N)ncnn23)[C@H](O)[C@@H]1O [OBELDESIVIR]
CC50 (HepG2): 71 µM | F [6]: 18% | Activity (SARS-CoV-2 [7]): Active | Cmax [8]: 19.6 µM | half-life (CES2 (cocaine esterase)): < 2 min | half-life [9]: 9.7 min | half-life [10]: > 2 min | AUC [11]: 0.01 µM·h | half-life [12]: 29 min | F [13]: 90% | Activity (SARS-CoV-2 [14]): Active | t1/2 [15]: 174 min | t1/2 [16]: 179 min | AUC [17]: 21.6 µM·h | half-life [18]: < 2 min | AUC [19]: 0.4 µM·h
